Some results are limits rather than exact numbers.

In patent US10919852B2, “Immunomodulator compounds” (CHEMOCENTRYX, INC., priority 2017, dated 2021) one finds IC50 data, which are given here for 56 molecules.

The target of this assay is human PD-L1 / Human PD-1 (Homo sapiens (Human), UniProt Q9NZQ7). The assay is described as follows: Enzyme-Linked Immunosorbent Assay (ELISA), PD-1/PD-L1 binding. Conditions: plate-coated human PD-L1, biotinylated human PD-1. Put shortly: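 Plates were coated with human PD-L1 at […]. Biotinylated human PD-1 (0.3 μg/mL) was added with 1:5 serially diluted compound for 1 h at 37 °C. Bound PD-1 was detected with streptavidin-HRP (1 h) and TMB (20 min), with absorbance read at 450 nm.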
Chain of human PD-L1 / Human PD-1 (Q9NZQ7 19-239): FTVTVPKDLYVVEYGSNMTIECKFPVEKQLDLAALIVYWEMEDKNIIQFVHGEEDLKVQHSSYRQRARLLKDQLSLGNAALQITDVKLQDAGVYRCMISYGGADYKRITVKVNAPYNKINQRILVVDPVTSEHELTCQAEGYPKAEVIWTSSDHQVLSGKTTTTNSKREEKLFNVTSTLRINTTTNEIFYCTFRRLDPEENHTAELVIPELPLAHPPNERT

What is called IC50 is the point on the concentration scale where inhibition reaches its midpoint. A lower IC50 goes with greater potency in that assay. In turn, `CCOc1cc(O[C@H]2CCc3c(-c4cccc(OCCCN5CCOCC5)c4C)cccc32)c(Cl)cc1CN1CC(C)(C(=O)O)C1` showed a concentration for half-maximal inhibition (IC50) of 5 to 500 nM.
Regarding `CCOc1cc(O[C@H]2CCc3c(-c4cccc(OCCCN5CCC(F)CC5)c4Cl)cccc32)c(Cl)cc1CN[C@H](C(=O)NS(C)(=O)=O)[C@@H](C)O`, the concentration for half-maximal inhibition (IC50) fell in the range of 5 to 500 nM.
The result for `N#Cc1cncc(COc2cc(O[C@H]3CCc4c(-c5cccc(OCCCN6CC7(CC(O)C7)C6)c5Cl)cccc43)c(Cl)cc2CN[C@@H]2CCCC[C@@H]2O)c1` reads under 5 nM; that for `Cc1c(OCCCN2CC(C)(O)C2)cccc1-c1cccc2c1CC[C@@H]2Oc1cc(OCc2cncc(C#N)c2)c(CNCC2CCC(=O)N2)cc1Cl` (some centres unmarked), under 5 nM; that for `Cc1c(OCCCN2CCC(O)CC2)cccc1-c1cccc2c1CC[C@@H]2Oc1cc(OCc2cncc(C#N)c2)c(CNCC2CCC(=O)N2)cc1Cl` (some centres unmarked), under 5 nM.
The figure for `Cc1c(OCCCN2CC(O)C2)cccc1-c1cccc2c1CC[C@@H]2Oc1cc(OCc2cncc(C#N)c2)c(CNCC2CCC(=O)N2)cc1Cl` (some centres unmarked) is under 5 nM.
`CCOc1cc(O[C@H]2CCc3c(-c4cccc(OCCCN5CCC5(C)C)c4C)cccc32)c(Cl)cc1CN1CC(C)(C#N)C1` yielded a half-inhibitory concentration (IC50) of 5 to 500 nM.
In the case of `CC(CO)(NCc1cc(Cl)c(O[C@H]2CCc3c(-c4cccc(OCCCN5CC(F)C5)c4Cl)cccc32)cc1OCc1cncc(C#N)c1)C(=O)O` (some centres unmarked), the IC50 is under 5 nM.
In turn, `Cc1c(OCCCN2CCC(O)CC2)cccc1-c1cccc2c1CC[C@@H]2Oc1cc(OCc2cncc(C#N)c2)c(CN2CC[C@H](O)C2)cc1Cl` yielded a concentration for half-maximal inhibition (IC50) of under 5 nM.
The figure for `N#Cc1cncc(COc2cc(O[C@H]3CCc4c(-c5cccc(OCCCN6CC[C@H](F)C6)c5Cl)cccc43)c(Cl)cc2CN[C@@H]2CCCC[C@@H]2O)c1` is under 5 nM; for `Cc1c(OCCCN2CCC(C)(C)CC2)cccc1-c1cccc2c1CC[C@@H]2Oc1cc(OCc2cc(C#N)cc(C#N)c2)c(CN[C@H]2CCC(=O)NC2)cc1Cl` it is 5 to 500 nM; for `C[C@@](CO)(NCc1cc(Cl)c(O[C@H]2CCc3c(-c4cccc(OCCCN5CC(O)C5)c4Cl)cccc32)cc1-c1cncc(C#N)c1)C(=O)O` it is under 5 nM.
The result for `N#Cc1cncc(COc2cc(O[C@H]3CCc4c(-c5cccc(OCCCN6CCC(O)CC6)c5Cl)cccc43)c(Cl)cc2CN[C@@H]2CCCC[C@@H]2O)c1` reads under 5 nM.
The result for `N#Cc1cncc(COc2cc(O[C@H]3CCc4c(-c5cccc(OCCCN6CCC(F)CC6)c5Cl)cccc43)c(Cl)cc2CN[C@H]2CCC[C@@H]2O)c1` reads under 5 nM.
Take `Cc1c(OCCCN2CCC(O)CC2)cccc1-c1cccc2c1CC[C@@H]2Oc1cc(OCc2cncc(C#N)c2)c(CN[C@H](C(=O)NS(C)(=O)=O)[C@@H](C)O)cc1Cl`: the IC50 is under 5 nM.
The result for `Cc1c(OCCCN2CCC(O)CC2)cccc1-c1cccc2c1CCC2Oc1cc(OCc2cc(C#N)cc(C#N)c2)c(CN[C@@H]2CCCC[C@@H]2O)cc1Cl` (some centres unmarked) reads under 5 nM.
The molecule `Cc1c(OCCCN2CCC(F)CC2)cccc1-c1cccc2c1CC[C@@H]2Oc1cc(OCc2cc(C#N)cc(C#N)c2)c(CN[C@H]2CCNC2=O)cc1Cl` [drawing 306] returned an IC50 of 5 to 500 nM.
The figure for `CCOc1cc(O[C@@H]2c3cccc(-c4cccc(OCCCN5CCC(C)(F)CC5)c4C)c3C[C@@H]2F)c(Cl)cc1CNC[C@@H]1CCC(=O)N1` is 5 to 500 nM; for `C[C@@H](O)[C@H](NCc1cc(Cl)c(O[C@H]2CCc3c(-c4cccc(OCCCN5CCC(O)CC5)c4F)cccc32)cc1OCc1cncc(C#N)c1)C(=O)O` it is under 5 nM; for `CN1CC(COc2cccc(-c3cccc4c3CC[C@@H]4Oc3cc(OCc4cncc(C#N)c4)c(CN[C@H]4CCC(=O)NC4)cc3Cl)c2Cl)CC1=O` (some centres unmarked) it is 5 to 500 nM.
`Cc1c(OCCCN2CCC(F)CC2)cccc1-c1cccc2c1CC[C@@H]2Oc1cc(OCc2cc(C#N)cc(C#N)c2)c(CN[C@@H]2CCC[C@H]2O)cc1Cl`: the IC50 was under 5 nM.
As to `Cc1c(OCCCN2CC[C@@H](F)C2)cccc1-c1cccc2c1CC[C@@H]2Oc1cc(OCc2cncc(C#N)c2)c(CN[C@@H]2CCCC[C@@H]2O)cc1Cl`, the IC50 is under 5 nM.
The result for `N#Cc1cncc(COc2cc(O[C@H]3CCc4c(-c5cccc(OCCCN6CCC(O)CC6)c5Cl)cccc43)c(Cl)cc2CNC(CO)CO)c1` reads under 5 nM; that for `Cc1c(OCCCN2CCC(O)CC2)cccc1-c1cccc2c1CC[C@@H]2Oc1cc(OCc2cncc(C#N)c2)c(CNC(C)(CO)CO)cc1Cl`, 5 to 500 nM; that for `CCOc1cc(O[C@H]2CCc3c(-c4cccc(OCCCN5CCC(F)CC5)c4Cl)cccc32)c(Cl)cc1CN[C@@H]1CCC(=O)NC1`, 5 to 500 nM.
The result for `Cc1c(OCCCN2CC3(C2)CC(F)(F)C3)cccc1-c1cccc2c1CC[C@@H]2Oc1cc(OCc2cc(C#N)cc(C#N)c2)c(CNC[C@H]2CCC(=O)N2)cc1Cl` reads 5 to 500 nM; that for `Cc1c(OCCCN2CCCC2C(C)(C)C)cccc1-c1cccc2c1CC[C@@H]2Oc1cc(OCc2cc(C#N)cc(C#N)c2)c(CN[C@H]2CCC(=O)NC2)cc1Cl` (some centres unmarked), 5 to 500 nM; that for `CCOc1cc(O[C@H]2CCc3c(-c4cccc(OCCCN5CCC[C@H]5C(C)C)c4C)cccc32)c(Cl)cc1CNC[C@@H]1CCC(=O)N1`, 5 to 500 nM.
The figure for `Cc1c(OCCCN2CCC(F)CC2)cccc1-c1cccc2c1CC[C@@H]2Oc1cc(OCc2cc(C#N)cc(C#N)c2)c(CN[C@@H]2CCC[C@@H]2O)cc1Cl` is under 5 nM.
With `Cc1c(OCCCN2CCC(O)CC2)cccc1-c1cccc2c1CCC2Oc1cc(OCc2cc(C#N)cc(C#N)c2)c(CN[C@@H](CO)C(=O)O)cc1Cl` (some centres unmarked), the 50% inhibitory concentration (IC50) was under 5 nM.
The result for `N#Cc1cncc(COc2cc(O[C@H]3CCc4c(-c5cccc(OCCCN6CC(O)C6)c5Cl)cccc43)c(Cl)cc2CNCC(=O)O)c1` reads under 5 nM; that for `N#Cc1cncc(COc2cc(O[C@H]3CCc4c(-c5cccc(OCCCN6CC7(CC(F)C7)C6)c5Cl)cccc43)c(Cl)cc2CN2CCC3(C2)NC(=O)NC3=O)c1` (some centres unmarked), 5 to 500 nM; that for `Cc1c(OCCCN2CCC(O)CC2)cccc1-c1cccc2c1CC[C@@H]2Oc1cc(OCc2cncc(C#N)c2)c(CNCC(C)(C)O)cc1Cl`, under 5 nM.
The result for `CCOc1cc(O[C@H]2CCc3c(-c4cccc(OCCCN5CCC(F)CC5)c4Cl)cccc32)c(Cl)cc1CN[C@H]1CCC(=O)NC1` reads 5 to 500 nM.
The result for `N#Cc1cncc(COc2cc(O[C@H]3CCc4c(-c5cccc(OCCCN6CC7(CC(F)C7)C6)c5Cl)cccc43)c(Cl)cc2CN[C@@H]2CCC[C@@H]2O)c1` reads under 5 nM; that for `N#Cc1cncc(COc2cc(O[C@H]3CCc4c(-c5cccc(OCCCN6CCCCC6)c5Cl)cccc43)c(Cl)cc2CN[C@@H]2CCCC[C@@H]2O)c1`, under 5 nM; that for `Cc1c(OCCCN2CCC2)cccc1-c1cccc2c1CC[C@@H]2Oc1cc(OCc2cc(C#N)cc(C#N)c2)c(CNC[C@H]2CCC(=O)N2)cc1Cl`, under 5 nM.
With `CCN1CCC(COc2cccc(-c3cccc4c3CC[C@@H]4Oc3cc(OCc4cncc(C#N)c4)c(CN[C@H]4CCC(=O)NC4)cc3Cl)c2Cl)C1` (some centres unmarked), the IC50 is under 5 nM.
The result for `N#Cc1cncc(COc2cc(O[C@H]3CCc4c(-c5cccc(OCCCN6CC(O)C6)c5Cl)cccc43)c(Cl)cc2CN2CC[C@@H](O)C2)c1` reads under 5 nM; that for `Cc1c(OCCCN2CCCCC2)cccc1-c1cccc2c1CC[C@@H]2Oc1cc(OCc2cc(C#N)cc(C#N)c2)c(CN[C@@H]2CCCC[C@@H]2O)cc1Cl`, under 5 nM.
The result for `Cc1c(OCCCN2CCC(C)(F)CC2)cccc1-c1cccc2c1CC[C@@H]2Oc1cc(OCc2cc(C#N)cc(C#N)c2)c(CN2CC3(C2)NC(=O)NC3=O)cc1Cl` reads 500 to 20000 nM.
The figure for `CCOc1cc(O[C@H]2CCc3c(-c4cccc(OCCCN5CCC5(C)C)c4C)cccc32)c(Cl)cc1CN(C)C(C)CC(=O)O` (some centres unmarked) is 5 to 500 nM; for `CCOc1cc(O[C@H]2CCc3c(-c4cccc(OCCCN5CCC5(C)C)c4C)cccc32)c(Cl)cc1CN1CC(C)(C(=O)O)C1` it is 5 to 500 nM; for `Cc1c(OCCCN2CCC(O)(C(=O)O)CC2)cccc1-c1cccc2c1CC[C@@H]2Oc1cc(OCc2cncc(C#N)c2)c(CN[C@H](C(=O)O)[C@@H](C)O)cc1Cl` it is under 5 nM.
The molecule `Cc1c(OCCCN2CC[C@@H](O)C2)cccc1-c1cccc2c1CC[C@@H]2Oc1cc(OCc2cncc(C#N)c2)c(CN[C@H](C(=O)O)[C@@H](C)O)cc1Cl` gave a concentration for half-maximal inhibition (IC50) of under 5 nM.
The result for `N#Cc1cc(C#N)cc(COc2cc(O[C@@H]3c4cccc(-c5cccc(OCCCN6CC(O)C6)c5Cl)c4C[C@@H]3F)c(Cl)cc2CNC[C@@H]2CCC(=O)N2)c1` reads 5 to 500 nM; that for `CCOc1cc(O[C@H]2CCc3c(-c4cccc(OCCCN5CCC5(C)C)c4C)cccc32)c(Cl)cc1CN(C)CCC(=O)OC(C)C`, 5 to 500 nM; that for `CCOC(=O)[C@@H](NCc1cc(Cl)c(O[C@H]2CCc3c(-c4cccc(OCCCN5CCC(O)CC5)c4C)cccc32)cc1OCc1cncc(C#N)c1)[C@@H](C)O`, 5 to 500 nM.
Turning to `CCOc1cc(O[C@H]2CCc3c(-c4cccc(OCCCN5CCC5(C)C)c4C)cccc32)c(Cl)cc1CN(C)CCCCC(=O)OC`, the concentration for half-maximal inhibition (IC50) was 5 to 500 nM.
The result for `CCOc1cc(O[C@H]2CCc3c(-c4cccc(OCCCN5CC[C@@H](O)C5)c4C)cccc32)c(Cl)cc1CN[C@@H]1CCCC[C@@H]1O` reads 5 to 500 nM.
The result for `CCOc1cc(O[C@H]2CCc3c(-c4cccc(OCCCN5CCC5(C)C)c4C)cccc32)c(Cl)cc1CN(C)CCCC(=O)OC` reads 5 to 500 nM; that for `Cc1c(OCCCN2CCC(C)(F)CC2)cccc1-c1cccc2c1CC[C@@H]2Oc1cc(OCc2cncc(C#N)c2)c(CN[C@H]2CCC(=O)NC2)cc1Cl`, 5 to 500 nM.
On to `Cc1c(OCCCN2CC3(CC(O)C3)C2)cccc1-c1cccc2c1CC[C@@H]2Oc1cc(OCc2cncc(C#N)c2)c(CN[C@H](C(=O)O)[C@@H](C)O)cc1Cl`, for which the concentration for half-maximal inhibition (IC50) was under 5 nM.
The figure for `Cc1c(OCCCN2CCC(O)CC2)cccc1-c1cccc2c1CC[C@@H]2Oc1cc(OCc2cncc(C#N)c2)c(CN[C@@H]2CCC[C@H]2O)cc1Cl` is under 5 nM; for `C[C@@H](O)[C@H](NCc1cc(Cl)c(O[C@H]2CCc3c(-c4cccc(OCCCN5CCC(O)CC5)c4Cl)cccc32)cc1OCc1cncc(C#N)c1)C(N)=O` it is under 5 nM.
The result for `CCOc1cc(O[C@H]2CCc3c(-c4cccc(OCCC(C)(C)N)c4C)cccc32)c(Cl)cc1CNC[C@@H]1CCC(=O)N1` reads 5 to 500 nM.
